# Source: patent US7763584B2, “Hepatitis C virus inhibitors” (priority 2006, dated 2010)
# Test system: HCV replicon in HUH-7 cells
# Assay: HCV replicon FRET assay (EC50 confirmed in replicon luciferase reporter assay)
# Assay type: cell-based
# Details: Hepatitis C virus, Huh-7, 96 h
# Excerpt: An HCV replicon whole cell system was established as described by Lohmann V, Korner F, Koch J, Herian U, Theilmann L, Bartenschlager R., Science 285(5424): 110-3 (1999). This system enabled us to evaluate the effects of our HCV Protease compounds on HCV RNA replication. Briefly, using the HCV strain 1b sequence described in the Lohmann paper (Assession number: AJ238799), an HCV cDNA was synthesized by Operon Technologies, Inc. (Alameda, Calif.), and the full-length replicon was then assembled in plasmid pGem9zf(+) (Promega, Madison, Wis.) using standard molecular biology techniques. […]
# The HCV replicon FRET assay was developed to monitor the inhibitory effects of compounds described in the disclosure on HCV viral replication. […] After 4 days, cells were first assessed for cytotoxicity using alamar Blue (Trek Diagnotstic Systems) for a CC50 reading. The toxicity of compound (CC50) was determined by adding 1/10th volume of alamar Blue to the media incubating the cells. After 4 h, the fluorescence signal from each well was read, with an excitation wavelength at 530 nm and an emission wavelength of 580 nm, using the Cytofluor Series 4000 (Perspective Biosystems). […]
structure (smiles),measurement,value
"CO[C@@]1(c2ccc(-c3ccccc3)cc2)C[C@H]2C(=O)N[C@]3(C(=O)NS(=O)(=O)C4CC4)C[C@H]3/C=C\CCCCC[C@H](NC(=O)OC(C)(C)C)C(=O)N2C1 [Compound 1, tert-butyl (2R,6S,13aS,14aR,16aS,Z)-2-(biphenyl-4-yl)-14a-(cyclopropylsulfonylcarbamoyl)-2-methoxy-5,16-dioxo-1,2,3,5,6,7,10,11,13a,14,14a,15,16,16a-hexadecahydrocyclopropa[e]pyrrolo[1,2-a][1,4]diazacyclopentadecin-6-ylcarbamate]",EC50,5 nM
